Drawing on patent US9708340B2, “Urea derivatives and their use as fatty-acid binding protein (FABP) inhibitors” (Hoffmann-La Roche Inc., priority 2013, dated 2017), this text covers IC50 for 14 compounds.

Test [1] addresses human FABP4 (huFABP4) (Homo sapiens (Human), UniProt P15090). The test is described as follows: Tb TR-FRET assay, binding of Bodipy labeled fatty acid to His6 tagged huFABP4. To be noted: 50 nM FABP protein, […] Bodipy labeled fatty acid; read-out: IC50 h-fabp4-ecoli-r. (In TR-FRET formats the signal depends on donor and acceptor labels being close together.)
Test [2] deals with human FABP5 (huFABP5) (Homo sapiens (Human), UniProt Q01469). Briefly: Tb TR-FRET assay, binding of Bodipy labeled fatty acid to His6 tagged huFABP5. To be noted: 50 nM FABP protein, […] Bodipy labeled fatty acid; read-out: IC50 h-fabp5-ecoli-r.
Chain of human FABP5 (huFABP5) (Q01469 whole entry): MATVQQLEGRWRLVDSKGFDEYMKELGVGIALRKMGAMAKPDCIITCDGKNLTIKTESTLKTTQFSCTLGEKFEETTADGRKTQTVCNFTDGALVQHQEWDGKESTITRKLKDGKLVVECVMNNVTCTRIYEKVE

Molecules are shown by their SMILES. Where only a bound is given, the exact number is not on record here.

Chain of human FABP4 (huFABP4) (P15090 whole entry): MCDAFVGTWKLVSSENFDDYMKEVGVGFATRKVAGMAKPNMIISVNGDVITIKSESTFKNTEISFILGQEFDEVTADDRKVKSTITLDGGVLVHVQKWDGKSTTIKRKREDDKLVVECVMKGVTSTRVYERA

For orientation: IC50 means the concentration that gives 50% inhibition. `COc1ccc(-c2ccc(Cl)cc2NC(=O)N2CCC[C@@H]2C(=O)O)cc1` [Example 60, (R)-1-(4-chloro-4′-methoxybiphenyl-2-ylcarbamoyl)pyrrolidine-2-carboxylic acid]: the IC50 in test [1] is 3450 nM; in test [2], more than 50000 nM.
For `O=C(O)[C@H]1CCCN1C(=O)Nc1cc(Cl)ccc1C1=CCCCC1` [Example 57, (R)-1-[5-chloro-2-(cyclohexen-1-yl)phenylcarbamoyl]pyrrolidine-2-carboxylic acid], the IC50 in test [1] was 1100 nM; in test [2], more than 50000 nM.
On to `O=C(O)[C@H]1CCN1C(=O)Nc1cc(Cl)ccc1-c1cc(F)cc(F)c1` [Example 39, (R)-1-(4-chloro-3′,5′-difluorobiphenyl-2-ylcarbamoyl)azetidine-2-carboxylic acid], for which the IC50 is 60 nM in test [1] and more than 50000 nM in test [2].
For `O=C(O)[C@H]1CCN1C(=O)Nc1cc(Cl)ccc1-c1ccc(F)cc1` [Example 29, (R)-1-(4-chloro-4′-fluorobiphenyl-2-ylcarbamoyl)azetidine-2-carboxylic acid], the figures for the IC50 in test [1] and in test [2] were 30 nM and more than 50000 nM, respectively.
The corresponding values for `O=C(O)[C@H]1CCCN1C(=O)Nc1cc(Cl)ccc1-c1ccccc1` [Example 10, (R)-1-(4-chlorobiphenyl-2-ylcarbamoyl)pyrrolidine-2-carboxylic acid] are 120 nM and more than 1440 nM.
`Cc1ccccc1-c1ccc(Cl)cc1NC(=O)N1CCC[C@@H]1C(=O)O` [Example 61, (R)-1-(4-chloro-2′-methylbiphenyl-2-ylcarbamoyl)pyrrolidine-2-carboxylic acid]: the IC50 in test [1] was 2750 nM; in test [2], more than 50000 nM.
For `O=C(O)[C@H]1CCN1C(=O)Nc1cc(Cl)c(F)cc1-c1ccccc1` [Example 30, (R)-1-(4-chloro-5-fluorobiphenyl-2-ylcarbamoyl)azetidine-2-carboxylic acid], the IC50 stood at 20 nM in test [1] and 40100 nM in test [2].
On to `O=C(O)[C@@H]1CCN1C(=O)Nc1cc(Cl)ccc1-c1ccccc1` [Example 27, (S)-1-(4-chlorobiphenyl-2-ylcarbamoyl)azetidine-2-carboxylic acid], for which the IC50 in test [1] is 1220 nM; in test [2] it was more than 50000 nM.
On the same counts, the results for `COc1cc(Cl)cc(NC(=O)N2CC[C@@H]2C(=O)O)c1-c1ccc(F)cc1` [Example 64, (R)-1-(4-chloro-4′-fluoro-6-methoxybiphenyl-2-ylcarbamoyl)azetidine-2-carboxylic acid] are 20 nM and 6660 nM.
As for `O=C(O)[C@H]1CCCN1C(=O)Nc1cc(Cl)ccc1-c1ccncc1` [Example 58, (R)-1-(5-chloro-2-(pyridin-4-yl)phenylcarbamoyl)pyrrolidine-2-carboxylic acid], the IC50 in test [1] was 2000 nM; in test [2], more than 50000 nM.
On the same counts, the results for `O=C(O)[C@H]1CCCN1C(=O)Nc1cc(Cl)ccc1-c1ccc(Cl)cc1` [Example 59, (R)-1-(4,4′-dichlorobiphenyl-2-ylcarbamoyl)pyrrolidine-2-carboxylic acid] are 2080 nM and more than 50000 nM.
`O=C(O)[C@H]1CSCN1C(=O)Nc1ccccc1-c1ccccc1` [Example 8, (S)-3-(Biphenyl-2-ylcarbamoyl)-thiazolidine-4-carboxylic acid]: the IC50 in test [1] was 330 nM; in test [2], more than 50000 nM.
The corresponding values for `O=C(O)C1CCCCN1C(=O)Nc1ccccc1-c1ccccc1` (stereo not shown) [Example 1, 1-(Biphenyl-2-ylcarbamoyl)-piperidine-2-carboxylic acid] are 8060 nM and more than 50000 nM.
The corresponding values for `O=C(O)[C@H]1CCCN1C(=O)Nc1cc(Cl)ccc1-c1csc2ccccc12` [Example 53, (R)-1-(2-(benzo[b]thiophen-3-yl)-5-chlorophenylcarbamoyl)pyrrolidine-2-carboxylic acid] are 340 nM and 42200 nM.
